pEC50: −log10 of the molar value. Like-named read-outs stand apart in the source and are kept apart here.
How the values were obtained:
[1] = system: human OPN promoter (pOPN1-luc) in A549/OPNluc cells; experiment: Luciferase assay: luciferase expression under control of OPN promoter; assay type: cell-based; conditions: Homo sapiens
Excerpt: A reporter vector pOPN1-luc obtained by the insertion of a human OPN promoter sequence (−765 to 23) into the multiple cloning site of pGL-3 basic vector (Promega) expresses luciferase when transfected into animal cells. The pOPN1-luc was transfected into a human non-small cell lung cancer-derived cell line A549 together with pPUR (Clontech) that expresses a puromycin resistance gene (puromycin-N-acetyl-transferase gene), and then cells expressing luciferase which could grow a puromycin-supplemented medium were selected. The selected cells were named “A549/OPNluc cells” and used for observation of luciferase expression inhibitory effect under control of OPN promoter, as described below.
A test compound was added to a culture containing A549/OPNluc cells to observe its influence on the amount of luciferase expressed in the cells. Here, it can be considered that when the test compound has a cell cytotoxity or cell growth inhibitory effect, the total expression level of luciferase is reduced due to a reduction in the number of living cells that depends on the concentration of the test compound, and therefore the luciferase expression inhibitory effect of the test compound under control of OPN promoter cannot be properly evaluated. For this reason, WST assay for quantification of cell proliferation ability or cell viability by colorimetric measurement was firstly performed to determine IC50 (concentration for 50% inhibition of cell growth) of the test compound for cell growth. Then, luciferase activity measurement was performed to determine EC50 (concentration for 50% inhibition of luciferase expression) of the test compound for luciferase expression under control of OPN promoter.
The same steps as in the above-mentioned WST assay were performed in which each solution of only DMSO (control) or the diluted test compound (sample) was added in an amount of 0.5 μL to each well containing the cell suspension to achieve 200-fold dilution, and the solution in each well was mixed with a vortex mixer, and the 96-well plate was incubated in a CO2 incubator (at 37° C. and 5% CO2) for 48±4 hours.
Luciferase Assay Substrate (hereinafter referred to as “LAS”) supplied in Luciferase Assay Systems (Promega: Cat #E1500) was dissolved in Luciferase Assay Buffer (LAB) to prepare a luciferase reagent. 5×Cell Culture Lysis Reagent (hereinafter referred to as “CCLR”) was diluted by 5 times with water to prepare 1×CCLR.
After the incubation for 48±4 hours, the medium in each well was completely removed, and 1×CCLR was dispensed into each well in an amount of 50 μL. The 96-well plate was allowed to stand at room temperature for 30 minutes, and then 1×CCLR in each well was used as an assay sample. The luciferase reagent (100 μL) was placed in a tube for chemiluminescence measurement, and the assay sample (20 μL) was added to the tube and mixed with the luciferase reagent to measure chemiluminescence (Relative Luminescence Intensity: RLU) using TB 20/20 (Promega) or GloMax 20/20 (Promega).
The RLU values of the control wells and the sample wells at each concentration were input into an Excel file, and the percentages of RLU values of the sample wells at each concentration to the average RLU value of the control wells were determined. From these values, a fitted curve was determined by the method of least squares to calculate EC50. Also, the percentages of RLU values of the sample wells at each concentration to the average RLU value of the control wells were divided by the percentages of absorbance values of the compounds in WST assay at the same concentrations as those of this assay (to the control), and a fitted curve was determined from the calculated values by the method of least squares to calculate corrected EC50.

A549 cells = experiment: Matrix-Invasion assay (Matrigel); assay type: cell-based, human; conditions: 10 μmol/L, 48±4 hours, significance level less than 5%
Experimental: As a second test for determining whether or not the physiological function of cells induced by the OPN production is inhibited with a test compound, Matrix-Invasion assay was performed. In this assay, cups (inserts) whose bottom was covered with a membrane having φ8 μm pores coated with collagen or laminin (Matrigel, BD Bioscience) that is an extracellular matrix component and a 24-well plate for inserting the inserts were prepared. […]
Specifically, a fluorescent dye was introduced into A549 cells invading outside the membrane, and then the cells were separated from the membrane to measure their fluorescence intensity. At the same time, a fluorescent dye was introduced into a known number of cells for preparing a calibration curve, and a calibration curve was prepared from their fluorescence intensity. Then, the number of invading cells of a test sample containing an unknown number of cells was determined from the fitted curve. […]
The cells of human non-small cell lung cancer-derived cell line A549 were suspended in DMEM medium containing 10% FCS and 1% P/S at 1.8×10^5 cells/mL to obtain a cell suspension. […] This day was counted as Day 0 of operation. […]

[2] = A549, A549/OPNluc cells, 48±4 hours, read-out: EC50 (concentration for 50% inhibition of luciferase expression)
[3] = A549, EC50 corrected for decrease in viable cells (RLU % divided by WST %), read-out: corrected EC50

SMILES	pEC50 [1, 2]	pEC50 [1, 3]	number of invading cells vs control group (A549 cells)
O=C(CCNC(=O)c1ccc(O)cc1)Nc1cccc(Oc2ccc(Cl)c(Cl)c2)c1 [Compound 38, N-(3-(3-(3,4-dichlorophenoxy)phenylamino)-3-oxopropyl)-4-hydroxybenzamide]	5.34	5.12	
COc1ccc(Oc2cccc(NC(=O)CCNC(=O)c3ccc(O)cc3)c2)cc1 [Compound 26, N-(3-(3-(4-Methoxyphenoxy)phenylamino)-3-oxopropyl)-4-hydroxybenzamide]	4.69	4.57	
Nc1ccc(C(=O)NCCC(=O)c2cccc(Oc3ccc(Cl)cc3)c2N)cc1 [Compound 19, N-(3-(2-Amino-3-(4-chlorophenoxy)phenyl)-3-oxopropyl)-4-aminobenzamide]	5.17	5.11	
COc1ccc(Oc2cccc(C(=O)CCNC(=O)c3ccc(O)cc3)c2N)cc1 [Compound 6, N-(3-(2-Amino-3-(4-methoxyphenoxy)phenyl)-3-oxopropyl)-4-hydroxybenzamide]	5.05	4.99	significantly inhibited

— US11040937B2, “Amide derivative” (TOHOKU UNIVERSITY, priority 2014, dated 2021)
